This is an account of results in patent US20120302573A1, “METHODS OF INHIBITING PRO MATRIX METALLOPROTEINASE ACTIVATION” (priority 2011, published 2012).

For assay [1], the target named is T1, proMMP9(20-445;ΔFnII) (SEQ ID NO:6) (Homo sapiens, UniProt P14780, DEL216-390).
T1 construct: amino acid pairs including: 29-215/391-444, 67-215/391-444, and 20-215/391-445, respectively; start methionine (N); made in house; host or cells: E. coli BL21(DE3) RIL
T1 sequence (P14780 with tags, fused parts or gaps DEL216-390): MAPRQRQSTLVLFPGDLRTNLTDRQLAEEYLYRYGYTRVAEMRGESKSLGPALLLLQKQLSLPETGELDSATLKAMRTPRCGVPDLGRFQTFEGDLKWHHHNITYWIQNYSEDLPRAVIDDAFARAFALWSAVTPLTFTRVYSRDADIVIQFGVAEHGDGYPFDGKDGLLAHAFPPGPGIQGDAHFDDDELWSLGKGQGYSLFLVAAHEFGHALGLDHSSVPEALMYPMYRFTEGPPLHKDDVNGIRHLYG
Description: ThermoFluor binding assay with proMMP9(20-445;ΔFnII). The method, boiled down: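 Thermal shift with 1,8-ANS dye, heating from 40 to 90 °C at 1 °C/min. Fluorescence excited at 380–400 nm and read at 500±25 nm. Protein was buffer-exchanged by desalting, and binding fitted using heat capacity and thermodynamic parameters from DSC and ThermoFluor dosing data, with DMSO reference wells.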
(In general: Differential scanning fluorimetry follows unfolding on heating by fluorescence.)

The target in assay [2] is T2, proMMP9(67-444;ΔFnII) (SEQ ID NO:5) (Homo sapiens, UniProt P14780, DEL216-390).
T2 construct: amino acid pairs including: 29-215/391-444, 67-215/391-444, and 20-215/391-445, respectively; start methionine (N); made in house; host or cells: E. coli BL21(DE3) RIL
T2 sequence (P14780 with tags, fused parts or gaps DEL216-390): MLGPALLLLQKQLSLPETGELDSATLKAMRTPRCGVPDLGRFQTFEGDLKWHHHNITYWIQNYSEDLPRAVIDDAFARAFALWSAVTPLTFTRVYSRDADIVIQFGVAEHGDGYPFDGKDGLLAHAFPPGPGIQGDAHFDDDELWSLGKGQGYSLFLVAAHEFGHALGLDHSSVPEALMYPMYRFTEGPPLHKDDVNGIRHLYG
Description: ThermoFluor binding assay with proMMP9(67-444;ΔFnII). The method, boiled down:
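Thermal shift (ThermoFluor) with 1,8-ANS dye; protein desalted by buffer exchange before use. Samples heated 40 to 90 °C at 1 °C/min, excitation 380-400 nm, emission 500±25 nm. Binding fitted using unfolding thermodynamic parameters from DSC and ThermoFluor dosing data.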

Assay [3] deals with T3, full-length proMMP9(1-707) activation by catalytic MMP3 (Homo sapiens, UniProt P14780, R574P). Description: proMMP9/MMP3 P126 Activation Assay. It is filed as biochemical. Also noted: made in house; host or cells: E. coli (MMP3). The following applies: proMMP9 from HEK293 cells.
Description: The assay buffer employed was 50 mM Hepes, pH 7.5, 10 mM CaCl2, 0.05% Brij-35. DMSO was included at a final concentration of 2%, arising from the test compound addition. […] The reaction volume was 50 μL. […] Initial velocities were plotted by use of a four-parameter logistics equation (GraphPad Prism® software) for determination of IC50.
Assay [4] has as its target T4, human catalytic MMP3, MMP3(100-265) (Homo sapiens, UniProt P08254).
T4 construct: Catalytic MMP3 was amino acids 100-265 of human MMP3 from UniProtKB/Swiss-Prot P08254; 6x-Histidine tag (C); made in house; host or cells: E. coli
The assay is described as follows: Catalytic MMP3 enzyme assay (fluorogenic peptide M2110). Type of assay: biochemical. On the procedure:
Compounds were assessed for inhibition of human catalytic MMP3, MMP3(100-265) (SEQ ID NO:8), using a peptide (Mca-RPKPVE-Nva-WRK(Dnp)-NH2, Bachem M2110) that fluoresces upon cleavage by catalytic MMP3. […] The reaction volume was 100 μL. […] Final concentrations employed were 20 nM catalytic MMP3 and 20 μM M2110 substrate.

For assay [5], the target named is T5, human catalytic MMP9 (Homo sapiens, UniProt P14780).
T5 construct: purchased BioMol SE-244
Description: Catalytic MMP9 enzyme assay (fluorogenic peptide P-126). Type of assay: biochemical.
Description: The assay buffer employed was 50 mM Hepes, pH 7.5, 10 mM CaCl2, 0.05% Brij-35. DMSO was included at a final concentration of 2%, arising from the test compound addition. The reaction volume was 100 μL. […] Initial velocities were plotted by use of a four-parameter logistics equation (GraphPad Prism® software) for determination of IC50, if required.

Assay [6] addresses T3, full-length proMMP9(1-707) activation by catalytic MMP3. Description: ProMMP9/MMP3 DQ Gelatin Activation Assay.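 Also: readout is fluorescence of quenched fluorescein gelatin cut by activated MMP9, 30 min activation at 37 °C, inhibition relative to DMSO-only controls with EDTA as blank.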 Type of assay: biochemical. On the set-up: made in house; host or cells: COS-1 (proMMP9); E. coli (MMP3). The following applies: proMMP9 from COS-1 cells; read-out: ProMMP9/MMP3 DQ gel, IC50.

SMILES strings stand for the structures.

T3 sequence (P14780 20-707 R574P): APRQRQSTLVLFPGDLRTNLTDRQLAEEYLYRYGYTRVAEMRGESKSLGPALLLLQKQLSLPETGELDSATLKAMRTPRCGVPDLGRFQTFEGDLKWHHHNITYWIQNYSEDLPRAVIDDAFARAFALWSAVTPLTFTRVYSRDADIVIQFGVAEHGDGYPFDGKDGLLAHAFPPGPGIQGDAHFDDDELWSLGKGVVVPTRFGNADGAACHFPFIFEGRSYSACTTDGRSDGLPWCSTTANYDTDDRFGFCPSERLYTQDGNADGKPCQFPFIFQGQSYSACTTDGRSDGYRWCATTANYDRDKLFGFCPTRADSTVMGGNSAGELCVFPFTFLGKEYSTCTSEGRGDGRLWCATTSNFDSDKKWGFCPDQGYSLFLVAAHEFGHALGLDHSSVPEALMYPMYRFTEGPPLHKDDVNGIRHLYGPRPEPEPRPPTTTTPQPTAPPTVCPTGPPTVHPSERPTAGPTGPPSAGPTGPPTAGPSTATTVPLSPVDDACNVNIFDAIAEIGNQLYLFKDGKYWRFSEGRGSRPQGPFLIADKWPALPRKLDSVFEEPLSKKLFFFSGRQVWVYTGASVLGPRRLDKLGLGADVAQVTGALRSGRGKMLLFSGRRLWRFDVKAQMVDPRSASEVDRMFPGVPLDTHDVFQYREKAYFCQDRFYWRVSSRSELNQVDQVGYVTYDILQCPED
T4 sequence (P08254 with tags, fused parts or gaps): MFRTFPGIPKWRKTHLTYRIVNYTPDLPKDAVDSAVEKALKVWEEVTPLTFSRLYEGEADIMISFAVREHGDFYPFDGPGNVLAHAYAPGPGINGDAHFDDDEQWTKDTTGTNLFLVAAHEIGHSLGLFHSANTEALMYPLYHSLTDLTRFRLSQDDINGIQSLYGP
T5 sequence (P14780 107-445 limits assumed): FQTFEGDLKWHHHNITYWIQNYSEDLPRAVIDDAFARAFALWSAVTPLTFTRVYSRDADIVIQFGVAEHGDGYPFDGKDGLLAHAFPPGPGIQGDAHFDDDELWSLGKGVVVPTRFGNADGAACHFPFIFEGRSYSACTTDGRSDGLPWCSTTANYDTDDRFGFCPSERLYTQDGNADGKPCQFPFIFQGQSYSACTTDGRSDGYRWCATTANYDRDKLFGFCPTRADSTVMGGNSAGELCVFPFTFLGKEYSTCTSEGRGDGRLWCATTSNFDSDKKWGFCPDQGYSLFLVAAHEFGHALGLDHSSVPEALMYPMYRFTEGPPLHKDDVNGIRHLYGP

The term Kd denotes a measure of binding affinity in units of concentration. Turning to `COc1ccc(F)cc1Nc1nc(-c2sc(N)nc2C)cs1` [Example 4, N^2-(5-Fluoro-2-methoxy-phenyl)-4′-methyl-[4,5′]bithiazolyl-2,2′-diamine.HBr], the Kd in assay [1] was found to be 1.7 µM; in assay [2] it was 0.254 µM. Further, the values for the IC50 in assay [3], in assay [4] and in assay [5] were 1.5 µM, more than 50 µM and more than 50 µM, respectively.
For `COc1ccc(Cl)cc1Nc1nc(-c2sc(NC(C)=O)nc2C)cs1` [Example 59, N-[2-(5-Chloro-2-methoxy-phenylamino)-4′-methyl-[4,5′]bithiazolyl-2′-yl]-acetamide], the Kd came out at 29.2 µM in assay [1] and 0.583 µM in assay [2]. The IC50 in assay [6] is 0.34 µM; in assay [3], 0.52 µM; in assay [4] it was more than 50 µM; in assay [5], more than 50 µM.
Consider `COc1ccc(Cl)cc1Nc1nc(-c2sc(N)nc2C)cs1` [Example 67, N^2-(5-Chloro-2-methoxy-phenyl)-4′-methyl-[4,5′]bithiazolyl-2,2′-diamine], for which the figures for the dissociation constant (Kd) in assay [1] and in assay [2] were 2.43 µM and 0.318 µM, respectively. For the same compound, the IC50 in assay [3] is 2.1 µM; in assay [4], more than 50 µM; in assay [5], more than 50 µM.
